Assay results as given in US20250186411A1, “Methods of Treating Disorders Associated with Overactivation of IKKB” (The United States Government as represented by the …, priority 2023, published 2025).

What was measured:
human podocytes = assay: Cell viability of podocytes (renilla activity, MTS assay); type: cell-based
Method: Differentiated pEZX-FR03hKLF5p human podocytes were treated with 25 μg/ml lipopolysaccharide (LPS) or vehicle and 1 μM KLF15 agonist or vehicle control for 24 hours. Firefly and renilla luciferase assay were measured initially to determine relative KLF15 reporter activity.
Differentiated pEZX-FR03hKLF5p human podocytes were treated with 0.4 μg/ml adriamycin (ADR) or vehicle and 1 μM KLF15 agonist or vehicle control for 24 hours. Firefly and renilla luciferase assay were measured initially to determine relative KLF15 reporter activity.
To assess cell viability, the CellTiter 96® AQueous One Solution Reagent (Promega) was added to the culture media and plates were incubated for 2 hours at 37° C. with 5% CO2.

FVB/n mice = assay: LPS-induced proteinuric murine model; type: in vivo, mouse
Method: In the LPS-induced proteinuric model, all 8-week-old FVB/n mice were initially treated with LPS [intraperitoneal (IP), 10 μg/g, Sigma-Aldrich] or sterile normal saline (IP) at 0- and 24-hour time points as previously described (17). […] Urine was collected and mice were euthanized 48 hours post-LPS treatment.
Urine albumin was quantified by ELISA using a kit from Bethyl Laboratory Inc. Urine creatinine levels were measured in the same samples using the Creatinine Colorimetric Assay Kit (500701; Cayman Chemical) as per manufacturer's protocol.
Briefly, mice were perfused with PBS containing 2.5 mg/ml iron oxide and 1% BSA. At the end of perfusion, kidneys were removed, decapsulated, minced into 1 mm^3 pieces, and digested in PBS containing 1 mg/ml collagenase A. Digested tissue was subsequently passed through a 100 μm cell strainer and collected by centrifugation. The pellet was resuspended in 1 ml PBS and glomeruli were collected using a magnet. The purity of glomeruli was verified under microscopy. Total RNA was isolated from kidney glomeruli of mice using the RNeasy Kit (Qiagen, Germantown, MD).
Total RNA from cells was extracted by using TRIzol (Life Technologies). First-strand cDNA was prepared from total RNA (up to 1.25 μg) using the SuperScript™ IV VILO™ Master Mix (Life Technologies), and cDNA was amplified in triplicate using PowerUp™ SYBR™ Green Master Mix on an ABI QuantStudio3 (Applied Biosystems). Primers for human and mouse genes were designed using NCBI Primer-BLAST and validated for efficiency before application (Table 1). Data were normalized to housekeeping genes (GAPDH or ACTB) and presented as a fold increase compared with RNA isolated from the control group using the ΔΔCT method.
Transmission Electron Microscopy (TEM) was done in the Central Microscopy Imaging Center at Stony Brook Medicine. Briefly, after embedding the kidney tissues in epoxy resin, ultrathin sections were stained with uranyl acetate and lead citrate, then mounted on a copper grid, and photographed under a FEI BioTwin G2 Transmission Electron Microscope with AMT XR-60 CCD digital Camera (FEI).

[1] = tested on: KLF15 promoter (pEZX-FR03hKLF15p human podocytes); assay: KLF15 reporter high-throughput screening assay in human podocytes (firefly/renilla luciferase); type: cell-based

CSc1ccc(NC(=O)Nc2ccc(C)nc2)cc1 [BT503]
toxicity to human podocytes (human podocytes; analogue screen): no observed toxicity | renilla activity (cell viability) in the setting of LPS treatment (human podocytes; as compared to DMSO-treated podocytes): restored renilla activity | Glomerular Klf15 and Wilms Tumor 1 (Wt1) expression (FVB/n mice; LPS conditions, vs DMSO-treated mice): restored | albuminuria (FVB/n mice; LPS proteinuric murine model, concurrent treatment, vs DMSO): attenuated albuminuria | foot process effacement (podocyte injury) (FVB/n mice; LPS treatment): significantly restored | KLF15 activity as compared to DEX-treated podocytes [1]: higher KLF15 activity | KLF15 activity under nonpermissive versus permissive conditions ([1]; 37 C vs 33 C): only induces KLF15 activity under nonpermissive (37 C) conditions
